Test results: patent US20150119344A1, “COMPOSITIONS AND METHODS FOR THE TREATMENT OF CARDIOVASCULAR AND NEUROLOGICAL DISEASES” (priority 2012, published 2015)

Assay: Water solubility: distilled water added to a weighed amount until a clear solution was obtained
Format: physicochemical
Details: for solubility: thermodynamic from solid, distilled water, weight in mg divided by volume of the clear solution in mL
Procedure: Measurement of the water solubility of the test compounds is accomplished by using methods well known to those skilled in the art. Specifically, to a weighed amount of the test compound of the example compound Formula I (Ib) distilled water was added in small proportions until a clear solution was obtained. The total volume of the solution is measured. The water solubility is calculated by dividing the weight of the salt, in milligrams (mg), by the volume of the solution, in mL. […] The compound of Formula I (Ib) is therefore, at least 368 times more soluble in water than EPA itself. This is a clear indication of an unexpectedly high degree of bioavailability of the compositions of the invention. Highly water soluble medicinal preparations, when administered orally, result in efficient absorption from the gastrointestinal tract in to systemic circulation. Furthermore, water soluble preparations are especially suitable for parenteral administration.

SMILES: CC/C=C\C/C=C\C/C=C\C/C=C\C/C=C\CCCC(=O)O [EPA, Eicosapentaenoic Acid, reference compound]
- solubility: < 0.2 mg/mL

SMILES: CC/C=C\C/C=C\C/C=C\C/C=C\C/C=C\CCCC(=O)OCC1OC(O)(CO)C(O)C1O (stereo not drawn) [Formula I (Ib)]
- times more soluble in water than EPA (ratio of water solubility versus EPA): at least 368 times
- solubility: 68.6 mg/mL
